Measured values taken from patent US11472771B2, “Process for making amino diaryl ethers and amino diaryl ethers hydrochloride salts” (CELLESTIA BIOTECH AG, priority 2018, dated 2022).

Assays:
Type in all cases: physicochemical
[1] = Stability study, storage 5° C.
Method: For 6-(4-(tert-butyl)phenoxy)pyridin-3-amine monohydrochloride two different types of stability studies were performed including short-term and long-term stability studies, respectively, […] In terms of analytical determinations six tests were involved including appearance, assay free base mean and purity mean, water, IR and XRPD. Appearance was determined by visual inspection. The product should be a white or off-white powder. Water content was determined according to USP <921> coulometric method. Identification of 6-(4-(tert-butyl)phenoxy)pyridin-3-amine monohydrochloride by IR spectroscopy was done according to USP <197>, comparing the spectrum obtained to that of the reference standard. X-Ray powder diffraction (XRPD) was performed according to USP <941> against the reference XRPD spectrum. Purity and assay of free base was done by HPLC-UV. Two methods were used. Mobile phases in the first method were water and acetonitrile. Mobile phases in the second method were water (0.5 mL of trifluoroacetic acid was added to 1000 mL of water) and acetonitrile (0.4 mL of trifluoroacetic acid was added to 1000 mL of acetonitrile). Equipment and chromatographic conditions for identification and determination of purity and assay of the 6-(4-(tert-butyl)phenoxy)pyridin-3-amine monohydrochloride by HPLC-UV according to the first method and the second method, respectively, are shown in Tables 5 and 6. [table] [table]

[2] = Stability study, storage 25° C., 60% rh
Method: (§1) For 6-(4-(tert-butyl)phenoxy)pyridin-3-amine monohydrochloride two different types of stability studies were performed including short-term and long-term stability studies, respectively, at 25° C. (RH, 60%), −5° C. and −20° C. for 36 months and an accelerated study at 40° C. (RH, 75%) over 6 months. In terms of analytical determinations six tests were involved including appearance, assay free base mean and purity mean, water, IR and XRPD. Appearance was determined by visual inspection. The product should be a white or off-white powder. Water content was determined according to USP <921> coulometric method. Identification of 6-(4-(tert-butyl)phenoxy)pyridin-3-amine monohydrochloride by IR spectroscopy was done according to USP <197>, comparing the spectrum obtained to that of the reference standard. X-Ray powder diffraction (XRPD) was performed according to USP <941> against the reference XRPD spectrum. Purity and assay of free base was done by HPLC-UV. Two methods were used. Mobile phases in the first method were water and acetonitrile. Mobile phases in the second method were water (0.5 mL of trifluoroacetic acid was added to 1000 mL of water) and acetonitrile (0.4 mL of trifluoroacetic acid was added to 1000 mL of acetonitrile). Equipment and chromatographic conditions for identification and determination of purity and assay of the 6-(4-(tert-butyl)phenoxy)pyridin-3-amine monohydrochloride by HPLC-UV according to the first method and the second method, respectively, are shown in Tables 5 and 6. [table] [table]

[3] = Stability study, storage −20° C.
Method: as §1

[4] = Accelerated stability study, storage 40° C., 75% rh; details: 6 months stability studies
Method: as §1

[5] = 6 months stability studies, 55° C., 3 mths
[6] = 6 months stability studies, 55° C., 6 mths
[7] = 6 months stability studies, 55° C., Release data
[8] = 36 months stability studies, 5° C., 6 mths
[9] = 36 months stability studies, 5° C., 9 mths
[10] = 36 months stability studies, 5° C., 12 mths
[11] = 36 months stability studies, 5° C., 18 mths
[12] = 36 months stability studies, 5° C., 24 mths
[13] = 6 months stability studies, 25° C., 60% rh, 3 mths
[14] = 6 months stability studies, 25° C., 60% rh, 6 mths
[15] = 6 months stability studies, 25° C., 60% rh, Release data
[16] = 36 months stability studies, 25° C. 60% rh, 6 mths
[17] = 36 months stability studies, 25° C. 60% rh, 9 mths
[18] = 36 months stability studies, 25° C. 60% rh, 12 mths
[19] = 36 months stability studies, 25° C. 60% rh, 18 mths
[20] = 36 months stability studies, 25° C. 60% rh, 24 mths
[21] = 6 months stability studies, 3 mths
[22] = 6 months stability studies, 6 mths
[23] = 6 months stability studies, Release data
[24] = 36 months stability studies, 6 mths
[25] = 36 months stability studies, 9 mths
[26] = 36 months stability studies, 12 mths
[27] = 36 months stability studies, 18 mths
[28] = 36 months stability studies, 24 mths

Assay free base, mean [1, 5]: 87.2 % m/m | IR, conforms to reference [1, 5]: complies | Purity, mean [1, 5]: 99 % area | Water [1, 5]: 0.02 % m/m | Assay free base, mean [1, 6]: 87.6 % m/m | IR, conforms to reference [1, 6]: complies | Purity, mean [1, 6]: 99 % area | Water [1, 6]: 0.02 % m/m | Assay free base, mean [1, 7]: 89.4 % m/m | IR, conforms to reference [1, 7]: complies | Purity, mean [1, 7]: 100.0 % area | Water [1, 7]: 0.01 % m/m | Water ([1]; 36 months stability studies, 5° C., 3 mths): 0.02 % m/m | Assay free base, mean [1, 8]: 87.5 % m/m | Purity, mean [1, 8]: 100.0 % area | Water [1, 8]: 0.02 % m/m | Assay free base, mean [1, 9]: 89.6 % m/m | Purity, mean [1, 9]: 100.0 % area | Water [1, 9]: 0.03 % m/m | Assay free base, mean [1, 10]: 87.3 % m/m | Purity, mean [1, 10]: 100.0 % area | Water [1, 10]: 0.02 % m/m | Assay free base, mean [1, 11]: 87.0 % m/m | Purity, mean [1, 11]: 100.0 % area | Water [1, 11]: 0.01 % m/m | Assay free base, mean [1, 12]: 88.3 % m/m | Purity, mean [1, 12]: 100.0 % area | Water [1, 12]: 0.02 % m/m | Water ([1]; 36 months stability studies, 5° C., Release data): 0.01 % m/m | Assay free base, mean [2, 13]: 88.8 % m/m | IR, conforms to reference [2, 13]: complies | Purity, mean [2, 13]: 99.5 % area | Water [2, 13]: 0.01 % m/m | Assay free base, mean [2, 14]: 87.2 % m/m | IR, conforms to reference [2, 14]: complies | Purity, mean [2, 14]: 98.8 % area | Water [2, 14]: 0.01 % m/m | Assay free base, mean [2, 15]: 87.0 % m/m | IR, conforms to reference [2, 15]: complies | Purity, mean [2, 15]: 99.2 % area | Water [2, 15]: 0.02 % m/m | Water ([2]; 36 months stability studies, 25° C. 60% rh, 3 mths): 0.01 % m/m | Assay free base, mean [2, 16]: 88.6 % m/m | Purity, mean [2, 16]: 100.0 % area | Water [2, 16]: 0.01 % m/m | Assay free base, mean [2, 17]: 88.0 % m/m | Purity, mean [2, 17]: 100.0 % area | Water [2, 17]: 0.02 % m/m | Assay free base, mean [2, 18]: 86.9 % m/m | Purity, mean [2, 18]: 100.0 % area | Water [2, 18]: 0.02 % m/m | Assay free base, mean [2, 19]: 87.7 % m/m | Purity, mean [2, 19]: 100.0 % area | Water [2, 19]: 0.02 % m/m | Assay free base, mean [2, 20]: 87.6 % m/m | Water [2, 20]: 0.02 % m/m | Purity, mean ([2]; 36 months stability studies, 25° C. 60% rh, 24 mths, monohydrochloride): 100 % area | Water ([2]; 36 months stability studies, 25° C. 60% rh, Release data): 0.02 % m/m | Assay free base, mean [3, 21]: 86.1 % m/m | IR, conforms to reference [3, 21]: complies | Purity, mean [3, 21]: 99 % area | Water [3, 21]: 0.02 % m/m | Assay free base, mean [3, 22]: 87.3 % m/m | IR, conforms to reference [3, 22]: complies | Purity, mean [3, 22]: 99 % area | Water [3, 22]: 0.02 % m/m | Assay free base, mean [3, 23]: 89.4 % m/m | IR, conforms to reference [3, 23]: complies | Purity, mean [3, 23]: 100 % area | Water [3, 23]: 0.01 % m/m | Water ([3]; 36 months stability studies, 3 mths): 0.02 % m/m | Assay free base, mean [3, 24]: 87.4 % m/m | Purity, mean [3, 24]: 100.0 % area | Water [3, 24]: 0.02 % m/m | Assay free base, mean [3, 25]: 88.6 % m/m | Purity, mean [3, 25]: 100.0 % area | Water [3, 25]: 0.03 % m/m | Assay free base, mean [3, 26]: 87.5 % m/m | Purity, mean [3, 26]: 100.0 % area | Water [3, 26]: 0.02 % m/m | Assay free base, mean [3, 27]: 87.4 % m/m | Purity, mean [3, 27]: 100.0 % area | Water [3, 27]: 0.01 % m/m | Assay free base, mean [3, 28]: 87.4 % m/m | Purity, mean [3, 28]: 100.0 % area | Water [3, 28]: 0.02 % m/m | Water ([3]; 36 months stability studies, Release data): 0.01 % m/m | Assay free base, mean ([4]; 3 mths): 89.2 % m/m | IR, conforms to reference ([4]; 3 mths): complies | Purity, mean ([4]; 3 mths): 99.6 % area | Water ([4]; 3 mths): 0.01 % m/m | Assay free base, mean ([4]; 6 mths): 87.4 % m/m | IR, conforms to reference ([4]; 6 mths): complies | Purity, mean ([4]; 6 mths): 98.9 % area | Water ([4]; 6 mths): 0.02 % m/m | XRPD, conforms to reference ([4]; 6 mths): complies | Assay free base, mean ([4]; Release data): 87.0 % m/m | IR, conforms to reference ([4]; Release data): complies | Purity, mean ([4]; Release data): 99.2 % area | Water ([4]; Release data): 0.02 % m/m
Structure (SMILES): CC(C)(C)c1ccc(Oc2ccc(N)cn2)cc1.Cl [6-(4-(tert-butyl)phenoxy)pyridin-3-amine monohydrochloride]
